{"source": "PubChem BioAssay AID1259409", "about": "(Chemical Carcinogenesis Research Information System (CCRIS), 2018)", "origin": "cited, not measured here", "tested_on": "rodent chemically induced tumor inhibition, incidence and multiplicity", "assay": "CCRIS tumor inhibitor studies", "conditions": "for outcome: Strain/Sex: SENCAR/FEMALE, Target Tissue: Type of Lesion: SKIN: TUMOR, Dose [Carcinogen]: 40 NMOL IN 0.2 ML ACETONE ONCE"}
{"molecule": "CCCCCCCCCCCCO", "values": [{"measurement": "tumour outcome (control, treated, inhibition, significance)", "setting": "Carcinogen: 4-(METHYLNITROSAMINO)-1-(3-PYRIDYL)-1-BUTANONE, 64091-91-4, Dose [Inhibitor]: 0, 1 UMOL IN 0.1 ML CORN OIL ONCE 2 HR PRIOR TO CARCINOGEN DOSE (STUDY DURATION: 16 WK), Route [Inhibitor]: GAVAGE, Species: MOUSE, Strain/Sex: STRAIN-A/FEMALE, Target Tissue: Type of Lesion: LUNG: ADENOMA, Dose [Carcinogen]: 10 UMOL IN 0.1 ML SALINE ONCE, Promoter: NONE USED", "value": "100%, 100%, 0%, not significant"}]}
{"molecule": "CC1(C)[C@@H](O)CC[C@]2(C)[C@H]3C(=O)C=C4[C@@H]5C[C@@](C)(C(=O)O)CC[C@]5(C)CC[C@@]4(C)[C@]3(C)CC[C@@H]12", "values": [{"measurement": "outcome", "setting": "Carcinogen: 7,12-DIMETHYLBENZ[A]ANTHRACENE, 57-97-6, Dose [Inhibitor]: 0, 10 UMOL IN 0.2 ML DMSO/ACETONE (1:2) 1/D BEGINNING 7 D PRIOR TO CARCINOGEN DOSE (STUDY DURATION: 16 WK), Route [Inhibitor]: DERMAL, Species: MOUSE", "value": "100%, 45%, 55%, not calculated at 9 wk; 100%, 85%, 15%, not calculated at 16 wk"}, {"measurement": "outcome", "setting": "Carcinogen: 7,12-DIMETHYLBENZ[A]ANTHRACENE, 57-97-6, Dose [Inhibitor]: 0, 30 UMOL IN DMSO/ACETONE (1:2) 30 MIN PRIOR TO EACH PROMOTER DOSE (STUDY DURATION: 16 WK), Route [Inhibitor]: DERMAL, Species: MOUSE", "value": "100%, 40%, 60%, not calculated at 9 wk; 100%, 80%, 20%, not calculated at 16 wk"}, {"measurement": "tumour outcome (control, treated, inhibition, significance)", "setting": "Carcinogen: 7,12-DIMETHYLBENZ[A]ANTHRACENE, 57-97-6, Dose [Inhibitor]: 10 UMOL APPLIED 40 MINUTES PRIOR TO PROMOTER DOSE (STUDY DURATION: 20 WK), Route [Inhibitor]: DERMAL, Species: MOUSE, Strain/Sex: ICR/FEMALE, Target Tissue: Type of Lesion: SKIN: PAPILLOMA, Dose [Carcinogen]: 100 UG ONCE", "value": "100%, 40%, 60%, p<0.05"}, {"measurement": "tumour outcome (control, treated, inhibition, significance)", "setting": "Carcinogen: AZOXYMETHANE, 25843-45-2, Dose [Inhibitor]: 0, 1200 PPM IN DIET BEGINNING 1 WK PRIOR TO CARCINOGEN TREATMENT FOR DURATION OF STUDY (STUDY DURATION: 54 WK), Route [Inhibitor]: ORAL, Species: RAT, Strain/Sex: F344/MALE, Target Tissue: Type of Lesion: COLON: ADENOCARCINOMA, Dose [Carcinogen]: 15 MG/KG/BW 1/WK FOR 2 WK, Promoter: NONE USED", "value": "58%, 78%, -35%, not calculated"}, {"measurement": "tumour outcome (control, treated, inhibition, significance)", "setting": "Carcinogen: AZOXYMETHANE, 25843-45-2, Dose [Inhibitor]: 0, 1200 PPM IN DIET BEGINNING 1 WK PRIOR TO CARCINOGEN TREATMENT FOR DURATION OF STUDY (STUDY DURATION: 54 WK), Route [Inhibitor]: ORAL, Species: RAT, Strain/Sex: F344/MALE, Target Tissue: Type of Lesion: COLON: ADENOMA, Dose [Carcinogen]: 15 MG/KG/BW 1/WK FOR 2 WK, Promoter: NONE USED", "value": "6%, 6%, 0%, not calculated"}, {"measurement": "tumour outcome (control, treated, inhibition, significance)", "setting": "Carcinogen: AZOXYMETHANE, 25843-45-2, Dose [Inhibitor]: 0, 2400 PPM IN DIET BEGINNING 1 WK PRIOR TO CARCINOGEN TREATMENT FOR DURATION OF STUDY (STUDY DURATION: 54 WK), Route [Inhibitor]: ORAL, Species: RAT, Strain/Sex: F344/MALE, Target Tissue: Type of Lesion: COLON: ADENOMA, Dose [Carcinogen]: 15 MG/KG/BW 1/WK FOR 2 WK, Promoter: NONE USED", "value": "6%, 6%, 0%, not significant"}, {"measurement": "tumour outcome (control, treated, inhibition, significance)", "setting": "Carcinogen: AZOXYMETHANE, 25843-45-2, Dose [Inhibitor]: 0, 2400 PPM IN DIET BEGINNING 1 WK PRIOR TO CARCINOGEN TREATMENT OF DURATION OF STUDY (STUDY DURATION: 54 WK), Route [Inhibitor]: ORAL, Species: RAT, Strain/Sex: F344/MALE, Target Tissue: Type of Lesion: COLON: ADENOCARCINOMA, Dose [Carcinogen]: 15 MG/KG/BW 1/WK FOR 2 WK, Promoter: NONE USED", "value": "58%, 53%, 9%, not calculated"}]}
